ChEMBL document CHEMBL5465560, “Selectivity Literature for EUbOPEN Chemogenomic Library” (2024)

Columns and labels:
[1] = target: Tyrosine-protein kinase ABL1 (Homo sapiens, UniProt P00519); conditions: at 10 µM
[2] = target: 5-hydroxytryptamine receptor 1B (Homo sapiens) (UniProt P28222); assay: Selectivity interaction (GPCR panel (PDSP screen)) EUB0001079a HTR1B; conditions: at 10 µM
[3] = target: Vascular endothelial growth factor receptor 3 (Homo sapiens, UniProt P35916); assay: Selectivity interaction (KinomeScan (DiscoverX)) EUB0000666a FLT4; conditions: at 10 µM
[4] = target: Homeodomain-interacting protein kinase 3 (Homo sapiens, UniProt Q9H422); assay: Selectivity interaction (KinomeScan (DiscoverX)) EUB0000666a HIPK3; conditions: at 10 µM
[5] = target: Tyrosine-protein kinase receptor Tie-1 (Homo sapiens) (UniProt P35590); assay: Selectivity interaction (KinomeScan (DiscoverX)) EUB0001868a TIE1; conditions: at 1 µM
[6] = target: Dual specificity mitogen-activated protein kinase kinase 2 (Homo sapiens) (UniProt P36507)
[7] = test system: Mast/stem cell growth factor receptor Kit (Homo sapiens), P10721 [V559D]; conditions: at 10 µM
[8] = target: [Pyruvate dehydrogenase (acetyl-transferring)] kinase isozyme 1, mitochondrial (Homo sapiens, UniProt Q15118)
[9] = target: Serine/threonine-protein kinase 16 (Homo sapiens, UniProt O75716); assay: Selectivity interaction (ActivX KiNativ screen (kinase selectivity in THP-1 cell lysates)) EUB0000639a STK16; format: subcellular; conditions: lysate, at 0.04 µM
[10] = target: Serine/threonine-protein kinase B-raf (Homo sapiens) (UniProt P15056); assay: (§1) Selectivity interaction (KinomeScan (DiscoverX)) EUB0000607a BRAF; conditions: at 10 µM
[11] = test system: Serine/threonine-protein kinase B-raf (Homo sapiens), P15056 [V600E]; assay: as §1; conditions: at 10 µM
[12] = target: Myosin light chain kinase 2, skeletal/cardiac muscle (Homo sapiens) (UniProt Q9H1R3); assay: Selectivity interaction (SelectScreen profiling (Invitrogen)) EUB0000607a MYLK2; conditions: at 2 µM
[13] = target: T1, SNF-related serine/threonine-protein kinase (Homo sapiens) (UniProt Q9NRH2); assay: Selectivity interaction (KinomeScan (DiscoverX)) EUB0000595a SNRK; conditions: at 10 µM
T1 sequence (whole entry): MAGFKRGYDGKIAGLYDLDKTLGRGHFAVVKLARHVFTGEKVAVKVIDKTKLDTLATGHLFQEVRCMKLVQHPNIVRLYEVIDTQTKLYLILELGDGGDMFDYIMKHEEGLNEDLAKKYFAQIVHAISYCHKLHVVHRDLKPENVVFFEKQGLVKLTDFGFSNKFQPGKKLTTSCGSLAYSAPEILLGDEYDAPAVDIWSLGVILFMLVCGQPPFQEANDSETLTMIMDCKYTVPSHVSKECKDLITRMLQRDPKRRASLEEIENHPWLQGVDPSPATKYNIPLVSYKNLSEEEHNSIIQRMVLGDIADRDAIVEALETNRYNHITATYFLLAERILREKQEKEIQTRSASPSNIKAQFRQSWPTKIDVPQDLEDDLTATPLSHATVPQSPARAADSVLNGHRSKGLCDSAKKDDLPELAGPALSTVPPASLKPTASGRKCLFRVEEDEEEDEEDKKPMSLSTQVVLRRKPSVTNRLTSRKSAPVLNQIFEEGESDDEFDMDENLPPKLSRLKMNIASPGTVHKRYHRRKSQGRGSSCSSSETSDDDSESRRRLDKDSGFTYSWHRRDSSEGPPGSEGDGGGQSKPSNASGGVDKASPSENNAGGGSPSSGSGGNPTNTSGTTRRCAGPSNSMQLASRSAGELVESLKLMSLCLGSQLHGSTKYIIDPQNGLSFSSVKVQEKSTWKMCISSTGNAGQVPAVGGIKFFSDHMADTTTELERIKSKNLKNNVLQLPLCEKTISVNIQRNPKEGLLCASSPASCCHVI

[14] = target: T2, Interleukin-1 receptor-associated kinase 3 (Homo sapiens) (UniProt Q9Y616); assay: Selectivity interaction (KinomeScan (DiscoverX)) EUB0000045b IRAK3
T2 sequence (whole entry): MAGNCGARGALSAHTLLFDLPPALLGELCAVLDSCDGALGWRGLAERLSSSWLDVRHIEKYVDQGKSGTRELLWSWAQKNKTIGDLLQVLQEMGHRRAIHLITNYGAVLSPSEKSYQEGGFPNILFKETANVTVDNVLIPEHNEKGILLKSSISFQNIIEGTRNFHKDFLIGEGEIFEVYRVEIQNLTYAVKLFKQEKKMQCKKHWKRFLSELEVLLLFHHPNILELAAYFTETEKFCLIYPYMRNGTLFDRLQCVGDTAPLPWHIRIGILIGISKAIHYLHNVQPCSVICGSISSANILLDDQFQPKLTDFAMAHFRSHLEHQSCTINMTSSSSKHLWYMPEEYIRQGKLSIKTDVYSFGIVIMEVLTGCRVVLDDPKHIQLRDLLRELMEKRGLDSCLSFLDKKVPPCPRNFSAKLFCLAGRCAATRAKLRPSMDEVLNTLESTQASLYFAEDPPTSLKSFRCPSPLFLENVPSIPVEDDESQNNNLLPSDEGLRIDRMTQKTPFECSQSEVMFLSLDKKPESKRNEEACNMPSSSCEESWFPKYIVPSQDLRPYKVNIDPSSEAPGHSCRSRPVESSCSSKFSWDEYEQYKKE

[15] = test system: Epidermal growth factor receptor (Homo sapiens), P00533 [UNDEFINED MUTATION]; assay: Selectivity interaction (KinomeScan (DiscoverX)) EUB0000045b EGFR; conditions: at 1 µM
[16] = target: Tyrosine-protein kinase Lck (Homo sapiens, UniProt P06239); assay: Selectivity interaction (Kinase panel (literature)) EUB0001199aCl LCK; conditions: at 1 µM
[17] = target: Ephrin type-A receptor 7 (Homo sapiens) (UniProt Q15375); assay: Selectivity interaction (KinomeScan (DiscoverX)) EUB0001619a EPHA7; conditions: at 1 µM
[18] = target: STE20-like serine/threonine-protein kinase (Homo sapiens, UniProt Q9H2G2); assay: Selectivity interaction (ActivX KiNativ screen (ex vivo kinase selectivity in human PBMCs)) EUB0001619a SLK; format: cell-based; conditions: PBMC, at 1 µM
[19] = target: DNA-dependent protein kinase catalytic subunit (Homo sapiens) (UniProt P78527); assay: Selectivity interaction (ActivX KiNativ screen (ex vivo kinase selectivity in human PBMCs)) EUB0001619a PRKDC; format: cell-based; conditions: PBMC, at 1 µM

Sequence of Myosin light chain kinase 2, skeletal/cardiac muscle (Homo sapiens) (Q9H1R3 whole entry): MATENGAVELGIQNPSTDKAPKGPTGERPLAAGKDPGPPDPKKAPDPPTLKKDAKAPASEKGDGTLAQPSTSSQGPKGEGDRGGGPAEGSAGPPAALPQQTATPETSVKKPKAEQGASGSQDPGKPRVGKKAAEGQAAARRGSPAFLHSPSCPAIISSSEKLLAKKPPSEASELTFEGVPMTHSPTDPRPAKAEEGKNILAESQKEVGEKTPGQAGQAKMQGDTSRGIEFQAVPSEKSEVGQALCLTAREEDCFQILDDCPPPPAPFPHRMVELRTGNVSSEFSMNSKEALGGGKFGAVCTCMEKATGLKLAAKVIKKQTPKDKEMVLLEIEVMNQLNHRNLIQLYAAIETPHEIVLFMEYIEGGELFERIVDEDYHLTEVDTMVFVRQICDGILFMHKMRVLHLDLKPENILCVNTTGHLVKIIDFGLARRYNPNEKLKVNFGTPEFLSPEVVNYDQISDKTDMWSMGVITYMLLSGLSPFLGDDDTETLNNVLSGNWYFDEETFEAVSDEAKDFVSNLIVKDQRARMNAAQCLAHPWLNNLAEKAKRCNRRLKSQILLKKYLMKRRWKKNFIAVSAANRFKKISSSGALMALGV
Sequence of Serine/threonine-protein kinase B-raf (Homo sapiens) (P15056 whole entry): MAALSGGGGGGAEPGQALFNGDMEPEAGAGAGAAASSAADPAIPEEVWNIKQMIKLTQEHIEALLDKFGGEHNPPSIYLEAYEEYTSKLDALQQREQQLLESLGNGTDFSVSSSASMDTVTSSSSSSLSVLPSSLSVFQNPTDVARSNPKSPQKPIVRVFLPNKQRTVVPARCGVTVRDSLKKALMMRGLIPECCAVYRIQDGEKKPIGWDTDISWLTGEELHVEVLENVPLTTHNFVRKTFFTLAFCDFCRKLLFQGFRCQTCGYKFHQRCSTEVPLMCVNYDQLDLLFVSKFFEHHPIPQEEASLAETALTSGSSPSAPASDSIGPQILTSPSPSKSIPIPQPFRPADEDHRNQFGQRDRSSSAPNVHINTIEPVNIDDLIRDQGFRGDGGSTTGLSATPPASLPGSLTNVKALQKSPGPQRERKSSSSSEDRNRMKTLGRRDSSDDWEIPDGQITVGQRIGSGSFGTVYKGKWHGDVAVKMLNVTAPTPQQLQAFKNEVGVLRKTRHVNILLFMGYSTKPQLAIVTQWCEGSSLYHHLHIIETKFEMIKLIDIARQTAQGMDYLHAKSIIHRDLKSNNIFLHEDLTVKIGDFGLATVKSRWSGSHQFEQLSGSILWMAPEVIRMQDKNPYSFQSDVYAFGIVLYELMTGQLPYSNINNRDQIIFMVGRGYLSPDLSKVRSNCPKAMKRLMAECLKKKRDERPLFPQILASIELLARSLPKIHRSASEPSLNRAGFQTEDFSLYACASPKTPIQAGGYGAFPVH
Sequence of [Pyruvate dehydrogenase (acetyl-transferring)] kinase isozyme 1, mitochondrial (Q15118 whole entry): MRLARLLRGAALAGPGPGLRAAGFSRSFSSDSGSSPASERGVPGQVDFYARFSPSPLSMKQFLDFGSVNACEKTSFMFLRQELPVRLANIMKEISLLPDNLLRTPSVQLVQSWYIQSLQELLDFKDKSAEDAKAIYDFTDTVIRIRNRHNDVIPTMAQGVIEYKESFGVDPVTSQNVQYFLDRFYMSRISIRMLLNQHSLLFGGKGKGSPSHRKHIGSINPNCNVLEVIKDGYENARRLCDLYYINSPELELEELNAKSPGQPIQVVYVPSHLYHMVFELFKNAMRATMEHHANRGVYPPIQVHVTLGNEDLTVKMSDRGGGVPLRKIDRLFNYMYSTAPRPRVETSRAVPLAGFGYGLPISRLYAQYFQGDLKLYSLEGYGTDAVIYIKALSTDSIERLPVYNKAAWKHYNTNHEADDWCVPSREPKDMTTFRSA
Sequence of Homeodomain-interacting protein kinase 3 (Q9H422 whole entry, looked up): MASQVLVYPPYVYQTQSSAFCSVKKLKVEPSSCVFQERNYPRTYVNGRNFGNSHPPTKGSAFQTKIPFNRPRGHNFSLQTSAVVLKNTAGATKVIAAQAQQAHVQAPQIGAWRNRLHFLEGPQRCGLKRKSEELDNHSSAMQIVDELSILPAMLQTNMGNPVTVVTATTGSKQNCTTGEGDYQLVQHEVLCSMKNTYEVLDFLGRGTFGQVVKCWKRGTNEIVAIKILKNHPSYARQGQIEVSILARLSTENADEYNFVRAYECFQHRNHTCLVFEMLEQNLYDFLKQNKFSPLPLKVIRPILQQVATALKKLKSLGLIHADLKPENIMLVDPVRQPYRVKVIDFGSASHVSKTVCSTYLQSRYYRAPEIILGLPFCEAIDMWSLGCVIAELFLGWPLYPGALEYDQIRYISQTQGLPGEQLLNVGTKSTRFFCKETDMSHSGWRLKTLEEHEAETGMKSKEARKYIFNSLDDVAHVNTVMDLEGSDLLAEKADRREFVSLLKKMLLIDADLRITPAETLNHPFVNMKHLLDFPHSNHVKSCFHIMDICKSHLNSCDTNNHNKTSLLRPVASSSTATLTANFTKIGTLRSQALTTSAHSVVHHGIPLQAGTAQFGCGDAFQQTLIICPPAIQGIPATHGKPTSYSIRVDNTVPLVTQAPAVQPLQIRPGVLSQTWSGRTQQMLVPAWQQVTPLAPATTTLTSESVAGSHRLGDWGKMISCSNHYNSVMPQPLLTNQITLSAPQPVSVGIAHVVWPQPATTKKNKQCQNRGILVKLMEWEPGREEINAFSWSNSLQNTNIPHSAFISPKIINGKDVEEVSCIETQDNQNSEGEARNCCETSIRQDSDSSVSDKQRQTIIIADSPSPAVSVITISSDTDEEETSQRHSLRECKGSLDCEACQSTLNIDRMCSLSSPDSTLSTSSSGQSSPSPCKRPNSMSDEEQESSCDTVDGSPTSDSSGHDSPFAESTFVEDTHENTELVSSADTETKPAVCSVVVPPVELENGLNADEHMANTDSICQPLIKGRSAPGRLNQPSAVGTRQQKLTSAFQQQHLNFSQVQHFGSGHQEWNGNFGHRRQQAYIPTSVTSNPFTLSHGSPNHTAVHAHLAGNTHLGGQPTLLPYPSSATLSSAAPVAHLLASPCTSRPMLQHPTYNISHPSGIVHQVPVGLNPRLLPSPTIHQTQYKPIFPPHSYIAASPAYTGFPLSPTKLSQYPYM
Sequence of Vascular endothelial growth factor receptor 3 (P35916 whole entry): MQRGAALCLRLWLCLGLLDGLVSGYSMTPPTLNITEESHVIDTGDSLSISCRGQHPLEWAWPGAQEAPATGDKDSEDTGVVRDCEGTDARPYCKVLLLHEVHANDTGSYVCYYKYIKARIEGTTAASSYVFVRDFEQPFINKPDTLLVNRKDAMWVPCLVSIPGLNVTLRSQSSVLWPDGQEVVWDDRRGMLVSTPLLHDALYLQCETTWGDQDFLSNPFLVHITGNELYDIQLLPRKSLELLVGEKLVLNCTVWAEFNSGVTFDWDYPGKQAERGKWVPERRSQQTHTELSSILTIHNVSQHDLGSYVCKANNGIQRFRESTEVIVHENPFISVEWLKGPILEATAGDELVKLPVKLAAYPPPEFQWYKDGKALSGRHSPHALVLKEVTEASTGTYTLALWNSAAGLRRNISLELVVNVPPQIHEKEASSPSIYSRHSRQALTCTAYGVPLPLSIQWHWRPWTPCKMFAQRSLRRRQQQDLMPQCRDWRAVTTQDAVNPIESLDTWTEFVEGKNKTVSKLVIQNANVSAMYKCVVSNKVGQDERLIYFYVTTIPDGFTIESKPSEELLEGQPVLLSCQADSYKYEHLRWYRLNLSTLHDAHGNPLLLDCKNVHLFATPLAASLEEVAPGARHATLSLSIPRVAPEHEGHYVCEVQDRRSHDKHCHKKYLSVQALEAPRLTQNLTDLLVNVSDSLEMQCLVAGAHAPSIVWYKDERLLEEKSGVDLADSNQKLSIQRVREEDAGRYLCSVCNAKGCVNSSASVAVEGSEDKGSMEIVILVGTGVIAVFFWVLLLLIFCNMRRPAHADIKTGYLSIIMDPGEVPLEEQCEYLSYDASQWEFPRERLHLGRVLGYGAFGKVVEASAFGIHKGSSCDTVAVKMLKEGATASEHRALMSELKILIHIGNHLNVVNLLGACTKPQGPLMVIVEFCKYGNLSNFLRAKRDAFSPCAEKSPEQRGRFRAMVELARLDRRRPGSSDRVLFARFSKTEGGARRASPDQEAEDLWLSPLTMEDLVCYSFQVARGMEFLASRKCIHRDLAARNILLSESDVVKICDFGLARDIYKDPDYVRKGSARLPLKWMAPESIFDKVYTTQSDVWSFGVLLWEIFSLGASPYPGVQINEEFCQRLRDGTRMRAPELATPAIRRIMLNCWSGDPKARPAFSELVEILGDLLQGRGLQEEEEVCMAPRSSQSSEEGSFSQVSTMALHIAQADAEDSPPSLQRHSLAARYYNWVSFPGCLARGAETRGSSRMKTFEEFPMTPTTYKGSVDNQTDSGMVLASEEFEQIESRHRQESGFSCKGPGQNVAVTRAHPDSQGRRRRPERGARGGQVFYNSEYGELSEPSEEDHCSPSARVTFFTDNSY
Sequence of Tyrosine-protein kinase Lck (P06239 2-509 limits assumed): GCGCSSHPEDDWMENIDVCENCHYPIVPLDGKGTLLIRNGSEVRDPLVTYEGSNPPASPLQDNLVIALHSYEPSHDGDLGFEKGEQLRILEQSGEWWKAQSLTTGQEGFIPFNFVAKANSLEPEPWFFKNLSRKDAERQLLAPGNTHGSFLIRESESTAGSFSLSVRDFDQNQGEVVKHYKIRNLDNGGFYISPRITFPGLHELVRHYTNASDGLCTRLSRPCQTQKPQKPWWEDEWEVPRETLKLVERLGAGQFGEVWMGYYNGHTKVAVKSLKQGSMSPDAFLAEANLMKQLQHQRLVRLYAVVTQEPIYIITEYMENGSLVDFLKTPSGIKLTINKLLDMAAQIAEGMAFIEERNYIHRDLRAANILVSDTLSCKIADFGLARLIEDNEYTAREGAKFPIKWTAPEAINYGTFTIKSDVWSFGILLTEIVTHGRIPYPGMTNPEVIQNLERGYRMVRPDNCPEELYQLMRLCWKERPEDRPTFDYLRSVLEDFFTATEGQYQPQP
Sequence of Serine/threonine-protein kinase B-raf (Homo sapiens), P15056 [V600E] (P15056 whole entry V600E): as the sequence (P15056 whole entry) above, with V600E counted along it

`CCN(CC)CCCCNc1ncc2cc(-c3cc(OC)cc(OC)c3)c(NC(=O)NC(C)(C)C)nc2n1` was tested, and the % of control [1] was 100%.

`Nc1cnc(N2CCc3cc(S(=O)(=O)Nc4c(F)cc(Cl)cc4F)cc(N4CCCC4=O)c32)nc1` [TP-020n] was tested, and the % of inhibition [2] was -3.82%.

In the case of `O=C(NOC[C@H](O)CO)c1ccc(F)c(F)c1Nc1ccc(I)cc1F`, the % of control [3] is reported as 94% and the % of control [4] is reported as 49%.

`Cc1cc(-c2ccnc(Nc3cnn(C)c3)n2)ccc1CNC(=O)N1CC(OC(C)C)C1` gave a % of control [5] of 46%.

Work on `CC(=O)Nc1cccc(-n2c(=O)n(C3CC3)c(=O)c3c(Nc4ccc(I)cc4F)n(C)c(=O)c(C)c32)c1` yielded a Kdapp [6] of 9 nM.

For `Cc1cc([C@@H](C)Nc2ccccc2C(=O)O)c2nc(N3CCOCC3)cc(=O)n2c1` [AZD-6482], the % of control [7] was 91%.

`CCc1cccc(CC)c1NC(=O)c1nn(C)c2c1CCc1cnc(Nc3ccc(C(=O)NC4CCN(C)CC4)cc3OC(F)(F)F)nc1-2` gave an IC50 [8] greater than 10 µM.

`CC[C@@H]1[C@H](F)C(=O)N[C@@H]1COc1nccc2cc(C(N)=O)c(OC)cc12` [ZIMLOVISERTIB] was tested, and the % of inhibition [9] was 13.8%.

`CNC(=O)Nc1ccc(-c2nc(N3CC4CCC(C3)O4)c3cnn(C4CCC5(CC4)OCCO5)c3n2)cc1` showed a % of control [10] of 100%, a % of control [11] of 100% and a % of inhibition [12] of 8%.

In the case of `COCC(=O)NC/C=C/c1ccc2ncnc(Nc3ccc(Oc4ccc(C)nc4)c(C)c3)c2c1` [CP-724714], the % of control [13] is reported as 71%.

`C=CC(=O)Nc1cc(-n2c(=O)ccc3cnc4ccc(-c5ccc(NS(C)(=O)=O)cc5)cc4c32)ccc1C` showed a % of control ([14]; at 1 µM) of 73%, a % of control ([14]; at 10 µM) of 34% and a % of control [15] of 89%.

For `CN1Cc2nccc(-c3cn(C)nc3-c3ccc(F)cc3)c2C1=O`, the % of inhibition [16] was 7%.

`N#Cc1cccc(-c2c[nH]c3ncnc(N4CCOCC4)c23)c1` showed a % of control [17] of 100%, a % of inhibition [18] of 61% and a % of inhibition [19] of 15%.
